Assay results taken from BindingDB's records for doi:10.3109/14756366.2012.663362 (Institute for Advanced Studies in Basic Sciences (IASBS), 2013).

Molecular target: Acetylcholinesterase (Electrophorus electricus, UniProt O42275)
Experiment: AChE Inhibition Assay
Conditions: pH 8; 25 °C
Procedure: Inhibitory activities of synthesized α-oxycarbanilinophosphonates were determined at 25°C by the colorimetric method of Ellman et al. [Ellman et al., Biochem. Pharmacol., 7:88-95]. The assay solution contained 0.1 M phosphate buffer, pH 8, 0.3 mM 5,5'-dithiobis(2-nitrobenzoic acid) (DTNB), 0.125 units of AChE (Sigma Chemical Co. from electric eel (Electrophorous electricus)), and 0.2 mM acetylthiocholine iodide as the substrate in a total volume of 2.5 mL. In order to provide sufficient time for interaction with either PAS and/or active site of the enzyme, particularly in competition with the substrate, the synthesized compounds were added to the assay solution and preincubated with the enzyme for 10 min at 25°C. In order to solubilize the synthesized compounds, the reaction mixture contained 2% ethanol (50 μL in 2.5 mL reaction mixture volume). Control experiments were run and it was seen that no inhibitory effect was exerted on the enzyme by ethanol. The changes in abs

Chain of Acetylcholinesterase (O42275 whole entry): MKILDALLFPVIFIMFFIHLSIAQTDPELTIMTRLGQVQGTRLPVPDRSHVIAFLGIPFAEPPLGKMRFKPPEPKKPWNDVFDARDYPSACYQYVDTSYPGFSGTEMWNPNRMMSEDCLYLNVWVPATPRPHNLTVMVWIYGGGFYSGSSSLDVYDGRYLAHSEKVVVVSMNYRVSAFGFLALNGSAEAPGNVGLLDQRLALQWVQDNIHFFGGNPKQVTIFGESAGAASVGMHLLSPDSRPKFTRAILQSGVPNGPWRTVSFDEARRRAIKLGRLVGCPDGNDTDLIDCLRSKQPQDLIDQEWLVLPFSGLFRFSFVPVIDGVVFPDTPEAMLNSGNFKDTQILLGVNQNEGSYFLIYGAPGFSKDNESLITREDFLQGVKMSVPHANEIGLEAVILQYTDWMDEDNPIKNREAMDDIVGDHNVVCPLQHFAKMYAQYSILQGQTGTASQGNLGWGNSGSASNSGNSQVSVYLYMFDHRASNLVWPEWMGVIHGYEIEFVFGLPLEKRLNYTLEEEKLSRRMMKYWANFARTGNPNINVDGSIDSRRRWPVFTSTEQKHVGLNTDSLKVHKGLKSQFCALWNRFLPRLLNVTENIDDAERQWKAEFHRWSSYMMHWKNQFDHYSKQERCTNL

CCOP(=O)(OCC)C(OC(=O)Nc1ccccc1)c1ccc(SC)cc1 (stereo not drawn) [α-Oxycarbanilinophosphonate, 4d]
IC50: 161 µM

CCOP(=O)(OCC)C(OC(=O)NCc1ccccc1)c1cccc2ccccc12 (stereo not drawn) [α-Oxycarbanilinophosphonate, 4l]
IC50: 418 µM

CCOP(=O)(OCC)C(OC(=O)Nc1ccc(C)c(Cl)c1)c1ccc(Cl)cc1Cl (stereo not given) [Diethyl[(3-chloro-4-methylanilinocarbonyl)oxy](2,4-dichlorophenyl)methyl phosphonate (4h)]
IC50: 6.36 µM

CCOP(=O)(OCC)C(OC(=O)Nc1ccc(C)c(Cl)c1)c1ccc([N+](=O)[O-])cc1 (stereo not drawn) [α-Oxycarbanilinophosphonate, 4i]
IC50: 7.47 µM

CCOP(=O)(OCC)C(/C=C/c1ccccc1[N+](=O)[O-])OC(=O)Nc1ccccc1 (stereo not drawn) [α-Oxycarbanilinophosphonate, 4f]
IC50: 10.3 µM
